One experiment deals with JAK1 (Homo sapiens (Human), UniProt P23458). Description: JAK1 enzyme activity assay (Thermo Fisher SelectScreen, Z-lyte). Type of experiment: biochemical. The note with it: read-out: JAK1 Inhibition IC50. The procedure, abridged: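 Z-lyte assay with 21.2-91.5 ng JAK and […] Tyr 06 in 50 mM HEPES pH 7.0, 10 mM MgCl2, 1 mM EGTA, 0.01% BRIJ-35; 1 h kinase reaction, then development reagent. 11-point dose-response from […] to 0.34 nM, 2% DMSO vehicle; IC50 from 4-parameter logistic fit of emission ratio.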
Chain of JAK1 (P23458 whole entry): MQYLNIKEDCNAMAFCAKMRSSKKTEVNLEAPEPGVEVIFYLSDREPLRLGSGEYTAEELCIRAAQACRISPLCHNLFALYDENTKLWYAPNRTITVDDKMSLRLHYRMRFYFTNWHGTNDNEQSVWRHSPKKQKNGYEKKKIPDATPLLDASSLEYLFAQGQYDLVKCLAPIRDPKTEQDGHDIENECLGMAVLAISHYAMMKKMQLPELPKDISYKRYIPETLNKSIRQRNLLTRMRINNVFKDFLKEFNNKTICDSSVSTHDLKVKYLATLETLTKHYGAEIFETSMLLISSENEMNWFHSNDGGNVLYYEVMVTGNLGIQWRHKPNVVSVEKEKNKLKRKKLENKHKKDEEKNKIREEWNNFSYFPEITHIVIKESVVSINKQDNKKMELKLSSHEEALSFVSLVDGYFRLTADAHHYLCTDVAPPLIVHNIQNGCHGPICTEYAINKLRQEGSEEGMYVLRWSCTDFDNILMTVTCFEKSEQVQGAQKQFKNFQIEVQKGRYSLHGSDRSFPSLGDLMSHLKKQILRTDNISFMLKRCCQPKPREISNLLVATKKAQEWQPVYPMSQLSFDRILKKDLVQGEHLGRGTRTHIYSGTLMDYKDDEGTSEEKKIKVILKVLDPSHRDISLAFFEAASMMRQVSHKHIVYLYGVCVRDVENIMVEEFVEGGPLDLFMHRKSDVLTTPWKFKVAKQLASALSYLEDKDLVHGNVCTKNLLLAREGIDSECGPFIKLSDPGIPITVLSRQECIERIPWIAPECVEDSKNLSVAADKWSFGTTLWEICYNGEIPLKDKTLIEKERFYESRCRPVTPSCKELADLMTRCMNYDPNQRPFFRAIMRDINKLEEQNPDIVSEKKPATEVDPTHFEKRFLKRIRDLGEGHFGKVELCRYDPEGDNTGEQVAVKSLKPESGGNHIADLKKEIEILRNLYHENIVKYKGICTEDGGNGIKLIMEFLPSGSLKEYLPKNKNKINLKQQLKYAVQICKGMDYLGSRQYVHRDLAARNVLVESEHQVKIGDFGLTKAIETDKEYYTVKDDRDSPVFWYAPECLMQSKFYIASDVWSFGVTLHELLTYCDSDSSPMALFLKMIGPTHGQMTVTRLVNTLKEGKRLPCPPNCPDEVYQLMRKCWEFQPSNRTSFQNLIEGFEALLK

A further experiment has as its target JAK2 (Homo sapiens (Human), UniProt O60674). The experiment is described as follows: JAK2 enzyme activity assay (Thermo Fisher SelectScreen, Z-lyte). It counts as biochemical. The note with it: read-out: JAK2 Inhibition IC50. The procedure, abridged: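 IC50 values derive from a 4-parameter logistic fit of emission ratio across an 11-point series ([…] to 0.34 nM, 2% DMSO vehicle). Reaction: 1 h, 0.12-0.5 ng JAK2, […] Tyr 06 in HEPES pH 7.5 buffer with MgCl2, EGTA, BRIJ-35, read by Z-lyte development.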

The target of the next experiment is JAK3 (a.a. 781-1124) (Homo sapiens (Human), UniProt P52333). Description: JAK3 enzyme activity assay (SRCtide phosphorylation, Caliper). Type of experiment: biochemical. As to conditions: 1 uM ATP; read-out: JAK3 Inhibition IC50.
Chain of JAK3 (a.a. 781-1124) (P52333 781-1124): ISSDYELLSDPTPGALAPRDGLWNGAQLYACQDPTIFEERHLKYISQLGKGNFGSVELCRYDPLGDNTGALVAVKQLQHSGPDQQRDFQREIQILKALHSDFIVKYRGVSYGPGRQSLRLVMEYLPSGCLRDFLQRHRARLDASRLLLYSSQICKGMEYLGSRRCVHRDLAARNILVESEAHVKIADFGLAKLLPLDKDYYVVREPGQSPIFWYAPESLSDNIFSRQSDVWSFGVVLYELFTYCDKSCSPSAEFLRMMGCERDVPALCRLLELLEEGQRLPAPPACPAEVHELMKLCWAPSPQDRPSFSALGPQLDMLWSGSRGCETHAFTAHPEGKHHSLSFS
A further experiment has as its target Tyk-2 (Homo sapiens (Human), UniProt P29597). Description: Tyk-2 enzyme activity assay (Thermo Fisher SelectScreen, Z-lyte). As to conditions: read-out: Tyk-2 Inhibition IC50. Type of experiment: biochemical. The procedure, abridged:
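Z-lyte FRET assay: 3.75–15 ng TYK2 with […] Tyr 03 peptide in HEPES pH 7.0, MgCl2, EGTA, BRIJ-35; 1 h reaction, then development reagent. 11-point dose-response, 2% DMSO; IC50 via 4-parameter fit of emission ratio, background without enzyme.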

In experiment [1] the test system is IL-2 stimulated STAT5 phosphorylation on Tyr694 (JAK1/3). The experiment is described as follows: JAK1/3 cellular target modulation: IL-2 stimulated phospho-STAT5 in PBMC. It counts as cell-based. The note with it: human PBMC, IL-2 25 ng/ml; read-out: IL2-STAT5 IC50. A digest of the protocol: (§1)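 Thawed human PBMC (200,000/well, RPMI/10% FBS) were preincubated with compound for 1 h at 37 °C, added from 10× stocks in 1% DMSO. Stimulation and read-out: IL-2 25 ng/ml, 5 min, pSTAT5 by MSD; IL-12 1.7 ng/ml, 25 min, pSTAT4 by MSD; IFNγ 10 ng/ml, 10 min, pSTAT1 by sandwich ELISA.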

Experiment [2] has as its system IFNγ stimulated STAT1 phosphorylation on Tyr701 (JAK1/2). The experiment is described as follows: JAK1/2 cellular target modulation: IFNγ stimulated phospho-STAT1 in PBMC. It counts as cell-based. The note with it: human PBMC, IFNγ 10 ng/ml; read-out: Infγ-STAT1 IC50. The procedure, abridged: as §1
The test system of experiment [3] is IL-12 stimulated STAT4 phosphorylation on Tyr693 (JAK2/TYK2). Description: JAK2/TYK2 cellular target modulation: IL-12 stimulated phospho-STAT4 in PBMC. It counts as cell-based. The note with it: human PBMC, IL-12 1.7 ng/ml; read-out: IL12-STAT4 IC50. A digest of the protocol: as §1

Chain of JAK2 (O60674 whole entry): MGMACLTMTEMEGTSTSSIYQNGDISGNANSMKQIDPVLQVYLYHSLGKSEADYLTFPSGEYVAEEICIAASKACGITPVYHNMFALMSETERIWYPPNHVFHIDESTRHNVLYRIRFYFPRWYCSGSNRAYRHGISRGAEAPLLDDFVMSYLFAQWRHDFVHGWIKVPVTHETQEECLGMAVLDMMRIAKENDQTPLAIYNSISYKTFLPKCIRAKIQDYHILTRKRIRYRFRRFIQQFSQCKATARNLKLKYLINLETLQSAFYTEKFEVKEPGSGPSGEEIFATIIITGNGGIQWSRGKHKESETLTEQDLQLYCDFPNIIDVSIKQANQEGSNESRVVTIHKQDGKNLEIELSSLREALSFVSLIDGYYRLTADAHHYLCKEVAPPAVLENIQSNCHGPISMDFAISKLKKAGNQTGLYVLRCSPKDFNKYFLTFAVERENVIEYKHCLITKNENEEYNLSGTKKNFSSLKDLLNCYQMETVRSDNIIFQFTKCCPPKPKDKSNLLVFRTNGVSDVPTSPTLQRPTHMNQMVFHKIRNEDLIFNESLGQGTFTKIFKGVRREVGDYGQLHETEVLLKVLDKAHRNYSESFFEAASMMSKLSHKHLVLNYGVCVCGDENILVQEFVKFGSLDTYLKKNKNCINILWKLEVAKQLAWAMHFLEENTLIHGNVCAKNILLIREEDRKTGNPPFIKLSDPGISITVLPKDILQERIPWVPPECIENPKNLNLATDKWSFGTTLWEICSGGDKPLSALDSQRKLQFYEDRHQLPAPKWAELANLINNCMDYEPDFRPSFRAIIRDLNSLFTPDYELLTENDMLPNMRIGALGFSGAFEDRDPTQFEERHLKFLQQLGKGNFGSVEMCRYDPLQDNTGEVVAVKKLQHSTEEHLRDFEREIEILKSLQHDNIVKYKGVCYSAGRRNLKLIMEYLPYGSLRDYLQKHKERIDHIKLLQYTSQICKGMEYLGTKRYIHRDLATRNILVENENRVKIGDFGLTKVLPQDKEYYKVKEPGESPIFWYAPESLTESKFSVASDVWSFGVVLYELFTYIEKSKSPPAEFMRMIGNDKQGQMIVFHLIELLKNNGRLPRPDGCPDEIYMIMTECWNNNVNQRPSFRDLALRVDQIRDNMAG
Chain of Tyk-2 (P29597 whole entry): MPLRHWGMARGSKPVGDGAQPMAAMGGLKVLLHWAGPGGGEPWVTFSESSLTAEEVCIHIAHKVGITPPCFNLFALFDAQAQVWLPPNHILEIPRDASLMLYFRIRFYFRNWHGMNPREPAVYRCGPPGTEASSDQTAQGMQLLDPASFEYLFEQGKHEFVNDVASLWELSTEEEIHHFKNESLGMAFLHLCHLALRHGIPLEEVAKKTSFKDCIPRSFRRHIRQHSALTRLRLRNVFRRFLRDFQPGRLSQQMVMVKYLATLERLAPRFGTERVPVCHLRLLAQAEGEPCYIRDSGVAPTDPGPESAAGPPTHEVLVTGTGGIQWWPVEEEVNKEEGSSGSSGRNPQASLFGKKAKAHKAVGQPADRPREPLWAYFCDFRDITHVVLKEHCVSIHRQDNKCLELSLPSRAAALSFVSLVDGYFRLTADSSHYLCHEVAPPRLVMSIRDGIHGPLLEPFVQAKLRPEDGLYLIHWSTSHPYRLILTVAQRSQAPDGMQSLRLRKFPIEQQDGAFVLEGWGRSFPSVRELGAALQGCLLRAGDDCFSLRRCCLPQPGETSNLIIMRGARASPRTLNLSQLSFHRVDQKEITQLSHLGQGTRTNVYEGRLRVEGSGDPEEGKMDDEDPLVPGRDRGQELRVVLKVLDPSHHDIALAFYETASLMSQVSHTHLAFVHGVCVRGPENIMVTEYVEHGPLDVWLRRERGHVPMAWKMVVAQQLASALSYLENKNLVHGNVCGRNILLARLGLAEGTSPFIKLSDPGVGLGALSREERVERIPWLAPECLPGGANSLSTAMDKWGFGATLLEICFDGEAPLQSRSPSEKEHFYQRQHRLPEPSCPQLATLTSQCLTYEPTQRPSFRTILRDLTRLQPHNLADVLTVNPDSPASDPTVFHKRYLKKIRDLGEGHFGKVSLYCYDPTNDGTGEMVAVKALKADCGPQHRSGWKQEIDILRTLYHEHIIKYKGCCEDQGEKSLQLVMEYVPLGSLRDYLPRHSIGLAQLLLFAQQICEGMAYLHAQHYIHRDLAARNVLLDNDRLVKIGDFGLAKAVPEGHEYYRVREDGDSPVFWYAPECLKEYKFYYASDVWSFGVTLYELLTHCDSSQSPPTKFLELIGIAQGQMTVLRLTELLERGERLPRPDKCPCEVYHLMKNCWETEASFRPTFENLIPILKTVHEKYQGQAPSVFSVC

Broadly, the IC50 is the concentration needed to halve the response being measured. Turning to `CCOC(=O)c1cnc(-c2cnc3[nH]ccc3c2N[C@@H]2CCCN(C(=O)CC#N)C2)s1` [Example 42, ethyl (R)-2-(4-((1-(2-cyanoacetyl)piperidin-3-yl)amino)-1H-pyrrolo[2,3-b]pyridin-5-yl)thiazole-5-carboxylate], the IC50 at JAK1 is ≤ 10 nM; on JAK2, ≤ 10 nM; at JAK3 (a.a. 781-1124), ≤ 10 nM; at Tyk-2, ≤ 10 nM; in experiment [1] it was ≤ 100 nM; in experiment [2], 100 to 1000 nM. Also, the IC50 in experiment [3] was 100 to 1000 nM.

In the case of `N#CCC(=O)N1CCC[C@@H](Nc2c(-c3nccs3)cnc3[nH]ccc23)C1` [Example 4, (R)-3-oxo-3-(3-((5-(thiazol-2-yl)-1H-pyrrolo[2,3-b]pyridin-4-yl)amino)piperidin-1-yl)propanenitrile], the IC50 is ≤ 10 nM at JAK1; ≤ 10 nM on JAK2; ≤ 10 nM at JAK3 (a.a. 781-1124); ≤ 10 nM at Tyk-2; ≤ 100 nM in experiment [1]; ≤ 100 nM in experiment [2]. In experiment [3], the IC50 is 100 to 1000 nM.

For the origin of these results see patent US11420966B2 (ACLARIS THERAPEUTICS, INC., priority 2019, dated 2022).
